The values that follow come from patent publication US20240228920A1, “Distilled Spirit with modified Alcohol Levels with or without a Functional Ingredient” (priority 2023, published 2024).

One experiment addresses T1, MAO A (Homo sapiens, UniProt P21397).
T1 sequence (P21397 1-527): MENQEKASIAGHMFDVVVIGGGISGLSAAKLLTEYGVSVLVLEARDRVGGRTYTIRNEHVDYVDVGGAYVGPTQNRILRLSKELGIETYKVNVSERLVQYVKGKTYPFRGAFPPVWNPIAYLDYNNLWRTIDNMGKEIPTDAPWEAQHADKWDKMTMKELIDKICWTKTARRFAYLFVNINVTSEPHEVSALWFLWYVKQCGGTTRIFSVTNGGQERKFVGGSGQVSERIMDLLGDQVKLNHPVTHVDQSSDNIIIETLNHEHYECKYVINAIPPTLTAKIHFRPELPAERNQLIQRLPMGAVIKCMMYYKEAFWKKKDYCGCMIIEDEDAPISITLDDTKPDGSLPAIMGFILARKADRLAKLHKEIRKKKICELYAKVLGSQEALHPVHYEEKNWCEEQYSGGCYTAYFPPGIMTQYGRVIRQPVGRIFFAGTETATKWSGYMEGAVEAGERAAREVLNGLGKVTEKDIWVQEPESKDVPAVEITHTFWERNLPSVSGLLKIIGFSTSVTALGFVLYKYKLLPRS
As to the kind of experiment: MAO A inhibitory activity assay. Format: biochemical. Conditions: terpene at 0.5% (v/v) in Don Julio Añejo (40% ABV) minus in 40% ethanol. The protocol: (§1) U.S. […] The contents of this document are incorporated herein by reference, but briefly, methods that include reverse osmosis and low-pressure evaporation to provide retentates with significant concentrations of these inhibitors are described. In addition, details of assay methods for monoamine oxidase activity (and therefore inhibition thereof) and for ethanol content are provided. The effect of compounds on MAOI activity in tequila was evaluated in the experiment from Table 3.

A further experiment concerns the target T2, MAO B (Homo sapiens, UniProt P27338).
T2 sequence (P27338 1-520): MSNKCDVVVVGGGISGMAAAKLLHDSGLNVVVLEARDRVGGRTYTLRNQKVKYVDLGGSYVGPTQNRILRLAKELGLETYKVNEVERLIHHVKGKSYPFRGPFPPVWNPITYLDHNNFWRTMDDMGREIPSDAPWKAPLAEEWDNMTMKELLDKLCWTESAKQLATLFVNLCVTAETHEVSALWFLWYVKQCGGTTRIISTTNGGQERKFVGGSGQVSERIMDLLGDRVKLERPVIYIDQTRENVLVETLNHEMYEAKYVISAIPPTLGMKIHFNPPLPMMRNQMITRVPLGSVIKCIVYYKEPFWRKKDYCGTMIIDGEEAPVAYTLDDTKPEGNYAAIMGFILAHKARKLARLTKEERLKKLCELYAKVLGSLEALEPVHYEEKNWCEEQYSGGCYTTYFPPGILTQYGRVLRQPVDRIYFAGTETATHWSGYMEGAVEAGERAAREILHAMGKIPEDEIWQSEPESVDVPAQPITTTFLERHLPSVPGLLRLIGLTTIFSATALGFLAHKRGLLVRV
As to the kind of experiment: MAO B inhibitory activity assay. It counts as biochemical. Particulars: terpene at 0.5% (v/v) in Don Julio Añejo (40% ABV) minus in 40% ethanol. As to the method:
as §1

`C=C(C)[C@@H]1CCC2=CCC[C@@H](C)[C@]2(C)C1` [valencene]: the “Δ % Inhibition MAO A (DJA + terpene) − (ETOH + terpene)” value (“Δ % Inhibition MAO A (DJA + terpene) −” below) on MAO A stood at 9%. Also, the “Δ % Inhibition MAO B (DJA + terpene) − (ETOH + terpene)” value (from here on “Δ % Inhibition MAO B (DJA + terpene) −”) at MAO B stood at 20%.

For `CC1=CCC(=C(C)C)CC1` [terpinolene], the “Δ % Inhibition MAO A (DJA + terpene) −” value on MAO A was determined as 1%. In addition, the “Δ % Inhibition MAO B (DJA + terpene) −” value at MAO B came out at 9%.

In the case of Geramol, the “Δ % Inhibition MAO A (DJA + terpene) −” value at MAO A came to 4%. The “Δ % Inhibition MAO B (DJA + terpene) −” value on MAO B turned out to be 9%.

Take `C=CC(=C)CCC=C(C)C` [β-myrcene]: the “Δ % Inhibition MAO A (DJA + terpene) −” value at MAO A is 5%. Also, the “Δ % Inhibition MAO B (DJA + terpene) −” value on MAO B is 11%.

On to `C=CCc1ccc(O)c(OC)c1` [eugenol], for which the “Δ % Inhibition MAO A (DJA + terpene) −” value on MAO A was 1%. Moreover, the “Δ % Inhibition MAO B (DJA + terpene) −” value on MAO B stood at 8%.

Turning to `CC(C)=CCCC(C)=CC=O` [citral], the “Δ % Inhibition MAO A (DJA + terpene) −” value on MAO A is 0%. Besides, the “Δ % Inhibition MAO B (DJA + terpene) −” value on MAO B came out at 2%.
